From PubChem BioAssay (NCI)
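Step 1: Grow cells in 96-well plates. Step 2: Expose to compound for 48 hours at 5 concentrations. Step 3: Interpolate endpoints linearly; if unreached, use highest concentration. GI50 marks 50% less growth. TGI denotes the concentration required for complete inhibition of growth.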

Tests used:
Assay in all cases: inhibition of tumour cell growth, NCI panel, 48 h
[1] = system: HS 578T breast
[2] = system: HL-60(TB) leukemia
[3] = system: PC-3 prostate
[4] = system: SNB-19 CNS
[5] = system: TK-10 renal
[6] = system: HCC-2998 colon
[7] = system: UACC-62 melanoma
[8] = system: HOP-62 NSCLC
[9] = system: SF-539 CNS
[10] = system: MALME-3M melanoma
[11] = system: DU-145 prostate
[12] = system: SK-OV-3 ovarian
[13] = system: UACC-257 melanoma
[14] = system: OVCAR-8 ovarian
[15] = system: BT-549 breast
[16] = system: IGROV1 ovarian
[17] = system: SR leukemia
[18] = system: SF-268 CNS
[19] = system: NCI/ADR-RES ovarian
[20] = system: A498 renal
[21] = system: SW-620 colon
[22] = system: K-562 leukemia
[23] = system: RPMI-8226 leukemia
[24] = system: NCI-H23 lung
[25] = system: NCI-H460 lung
[26] = system: LOX IMVI melanoma
[27] = system: HOP-92 NSCLC
[28] = system: T-47D breast
[29] = system: KM12 colon
[30] = system: A549 NSCLC
[31] = system: CAKI-1 renal
[32] = system: SK-MEL-5 melanoma
[33] = system: EKVX NSCLC
[34] = system: MDA-MB-435
[35] = system: HCT-116 colon
[36] = system: MCF7 breast
[37] = system: ACHN renal
[38] = system: RXF 393 renal
[39] = system: M14 melanoma
[40] = system: NCI-H226 lung
[41] = system: CCRF-CEM leukemia
[42] = system: MOLT-4 leukemia
[43] = system: HCT-15 colon
[44] = system: HT29 colon
[45] = system: UO-31 renal
[46] = system: SNB-75 CNS
[47] = system: MDA-MB-231 breast
[48] = system: SK-MEL-28 melanoma
[49] = system: NCI-H522 lung
[50] = system: OVCAR-5 ovarian
[51] = system: OVCAR-4 ovarian
[52] = system: SF-295 CNS
[53] = system: OVCAR-3 ovarian
[54] = system: SN12C renal
[55] = system: U251 CNS
[56] = system: 786-0 renal
[57] = system: SK-MEL-2 melanoma
[58] = system: COLO 205 colon

`COc1c(B(O)O)cc(F)cc1-c1nc2ccc3[nH]ncc3c2c2c1CCCC2` gave a GI50 [1] of 17.3 nM, a TGI [1] of 5430 nM and a GI50 [2] of 112 nM. For the same compound, the TGI [2] was 10500 nM, the GI50 [3] was 1900 nM and the TGI [3] was 11300 nM. It also gave a GI50 [4] of 1730 nM, a TGI [4] of 13000 nM and a GI50 [5] of under 10 nM. It also gave a TGI [5] of 9430 nM, a GI50 [6] of 2080 nM and a TGI [6] of 5610 nM. It also gave a GI50 [7] of 1550 nM, a TGI [7] of 5850 nM and a GI50 [8] of under 21.2 nM. For the same compound, the TGI [8] was 11500 nM, the GI50 [9] was 68.6 nM and the TGI [9] was 2240 nM. For the same compound, the GI50 [10] was 3540 nM, the TGI [10] was 6820 nM and the GI50 [11] was 1700 nM. For the same compound, the TGI [11] was 12900 nM, the GI50 [12] was 1130 nM and the TGI [12] was 13900 nM. It also gave a GI50 [13] of 3650 nM, a TGI [13] of 12500 nM and a GI50 [14] of 1550 nM. For the same compound, the TGI [14] was 17700 nM, the GI50 [15] was 44 nM and the TGI [15] was 1760 nM. It also gave a GI50 [16] of 1490 nM, a TGI [16] of 11200 nM and a GI50 [17] of 108 nM. The TGI [17] was over 38600 nM, the GI50 [18] was 1420 nM and the TGI [18] was 10500 nM. It also gave a GI50 [19] of 2030 nM, a TGI [19] of 13700 nM and a GI50 [20] of 66.4 nM. For the same compound, the TGI [20] was 2520 nM, the GI50 [21] was 660 nM and the TGI [21] was 11200 nM. It also gave a GI50 [22] of 3270 nM, a TGI [22] of over 100000 nM and a GI50 [23] of 1120 nM. The TGI [23] was 5580 nM, the GI50 [24] was 2020 nM and the TGI [24] was 7610 nM. For the same compound, the GI50 [25] was 822 nM, the TGI [25] was 10500 nM and the GI50 [26] was 727 nM. It also gave a TGI [26] of 3430 nM, a GI50 [27] of under 10 nM and a TGI [27] of 14400 nM. For the same compound, the GI50 [28] was 2620 nM, the TGI [28] was 8990 nM and the GI50 [29] was 1260 nM. The TGI [29] was 7620 nM, the GI50 [30] was 1170 nM and the TGI [30] was 16000 nM. For the same compound, the GI50 [31] was under 10 nM, the TGI [31] was 134 nM and the GI50 [32] was 1990 nM. The TGI [32] was 7340 nM, the GI50 [33] was 2370 nM and the TGI [33] was 10200 nM. For the same compound, the GI50 [34] was 1780 nM, the TGI [34] was 3600 nM and the GI50 [35] was 322 nM. The TGI [35] was 10300 nM, the GI50 [36] was 1530 nM and the TGI [36] was 6570 nM. It also gave a GI50 [37] of 1120 nM, a TGI [37] of 16300 nM and a GI50 [38] of under 10 nM. For the same compound, the TGI [38] was 294 nM, the GI50 [39] was 2640 nM and the TGI [39] was 5440 nM. For the same compound, the GI50 [40] was 2000 nM, the TGI [40] was 7850 nM and the GI50 [41] was 530 nM. The TGI [41] was over 38600 nM, the GI50 [42] was 1180 nM and the TGI [42] was over 100000 nM. For the same compound, the GI50 [43] was 2120 nM, the TGI [43] was 9440 nM and the GI50 [44] was 3070 nM. The TGI [44] was 21100 nM, the GI50 [45] was 45 nM and the TGI [45] was 9210 nM. The GI50 [46] was under 10 nM, the TGI [46] was 60.7 nM and the GI50 [47] was under 10 nM. The TGI [47] was 15000 nM, the GI50 [48] was 2690 nM and the TGI [48] was 8470 nM. The GI50 [49] was 1030 nM, the TGI [49] was 11700 nM and the GI50 [50] was 2460 nM. The TGI [50] was 16900 nM, the GI50 [51] was 3800 nM and the TGI [51] was 12100 nM. It also gave a GI50 [52] of 1760 nM, a TGI [52] of 10800 nM and a GI50 [53] of 2950 nM. The TGI [53] was 10200 nM, the GI50 [54] was 1150 nM and the TGI [54] was 15300 nM. For the same compound, the GI50 [55] was 1600 nM, the TGI [55] was 13100 nM and the GI50 [56] was 279 nM. For the same compound, the TGI [56] was 5840 nM, the GI50 [57] was 2670 nM and the TGI [57] was 7050 nM. It also gave a GI50 [58] of 1610 nM and a TGI [58] of 4970 nM.
